According to the supplement of paper PMC8837787:

Test system: Saccharomyces cerevisiae ABC16-Green Monster
Test: growth inhibition at single dose (up to 150 µM), below the 70% cut-off for dose-response; higher = more potent
Conditions: 18 h; 30 °C; YPD
Procedure, shortened: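 Data are given as percent growth inhibition. Log-phase drug-sensitive S. cerevisiae ABC16-Green Monster cells (OD600 0.1–0.2, 200 µl per well in 96-well plates) were treated in biological duplicates with each library compound at a single 150 µM dose, with untreated cultures alongside, and OD600 was measured at 0 h and after 18 h at 30 °C. Compounds falling below 70% in both replicates were not taken to dose-response.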

Structure (SMILES): CC(C)c1ccc2cc(C(=O)Nc3ccc4c(c3)NC(=O)CO4)[nH]c2c1
- growth inhibition at single dose: < 70%

Structure (SMILES): COc1ccc(O)c(C(=O)c2cnc3cc4c(cc3c2)OCCO4)c1
- growth inhibition at single dose: < 70%

Structure (SMILES): c1ccc(Oc2ccc(-c3cc(CN4CCOCC4)[nH]n3)cc2)cc1
- growth inhibition at single dose: < 70%

Structure (SMILES): CCOc1cccc(C2Nc3ccccc3C(=O)N2C2CC2)c1O (stereo not given)
- growth inhibition at single dose: < 70%

Structure (SMILES): Cc1cccc(C(=O)Nc2ccnc(N(C)C3CCN(CC(C)C)CC3)c2)c1
- growth inhibition at single dose: < 70%

Structure (SMILES): COc1ccc(NC(=O)C2c3ccccc3C(=O)N(CC(C)C)C2c2cccs2)cc1 (stereo not given)
- growth inhibition at single dose: < 70%

Structure (SMILES): CN(C)S(=O)(=O)c1ccc2oc(SCC(=O)Nc3cc(C(C)(C)C)no3)nc2c1
- growth inhibition at single dose: < 70%

Structure (SMILES): Cc1c(C)n(Cc2ccc(F)cc2)c2ccc(C(=O)NCc3ccco3)cc12
- growth inhibition at single dose: < 70%

Structure (SMILES): c1ccc2c(c1)[nH]c1nc(SCc3cn4ccsc4n3)nnc12
- growth inhibition at single dose: < 70%

Structure (SMILES): OC(CNCc1ccccc1)Cn1c2ccccc2c2ccccc21 (stereo not given)
- growth inhibition at single dose: < 70%

Structure (SMILES): Cc1cccc(Cn2ccc(NC(=O)c3ccc4c(c3)OCO4)n2)c1
- growth inhibition at single dose: < 70%

Structure (SMILES): COc1cc(Nc2ncnc3ccsc23)cc(OC)c1
- growth inhibition at single dose: < 70%

Structure (SMILES): COc1ccc(F)cc1CN(Cc1ccc(C(=O)NC2CC2)cc1)Cc1ccco1
- growth inhibition at single dose: < 70%

Structure (SMILES): COc1cc2cc(C(=O)Nc3ccccc3)c(N)nc2cc1OC
- growth inhibition at single dose: < 70%

Structure (SMILES): Cc1cc(OCC(=O)NCc2ccccc2)c2cc(Br)ccc2n1
- growth inhibition at single dose: < 70%

Structure (SMILES): CC1CC(NC(=O)c2cc3c(=O)n4ccccc4nc3n2C)CC(C)(C)C1 (stereo not given)
- growth inhibition at single dose: < 70%

Structure (SMILES): C=CC12CCN(CC1)C(C(O)c1ccnc3ccc(OC)cc13)C2 (stereo not given)
- growth inhibition at single dose: < 70%

Structure (SMILES): COc1ccc2nc(C)cc(OCC(=O)Nc3ccccc3OC)c2c1
- growth inhibition at single dose: < 70%

Structure (SMILES): Cc1ccc(Nc2nc(N)c3ccccc3n2)cc1Cl
- growth inhibition at single dose: < 70%

Structure (SMILES): CN(Cc1ccccc1)S(=O)(=O)c1ccc(Cl)c(C(=O)Nc2nnc(C(F)(F)F)[nH]2)c1
- growth inhibition at single dose: < 70%

Structure (SMILES): O=C(NCc1nnc2n1CCCCC2)c1ccc(-c2ccc(F)cc2)o1
- growth inhibition at single dose: < 70%

Structure (SMILES): O=C(Cn1ccnc1[N+](=O)[O-])NCc1ccccc1
- growth inhibition at single dose: < 70%

Structure (SMILES): COc1ccc(-c2nnc(SC(C)C(=O)NCCC3=CCCCC3)[nH]2)cc1 (stereo not given)
- growth inhibition at single dose: < 70%

Structure (SMILES): CCOC(=O)c1c(C)n(-c2ccccc2)c2ccc(OC(=O)c3cc(OC)c(OC)c(OC)c3)cc12
- growth inhibition at single dose: < 70%

Structure (SMILES): CCNC(=O)C(C)Nc1nc(-c2cccnc2)nc2sc(C)c(C)c12 (stereo not given)
- growth inhibition at single dose: < 70%

Structure (SMILES): COc1ccc(-c2cc3ncnc(NCc4ccc(N5CCN(C)CC5)nc4)c3s2)cc1
- growth inhibition at single dose: < 70%

Structure (SMILES): Cc1cc(Cl)ccc1NC(=O)CCc1ccc(S(=O)(=O)NCC(C)C)cc1
- growth inhibition at single dose: < 70%

Structure (SMILES): OCCNCc1cc(Br)ccc1OCc1ccc(F)cc1
- growth inhibition at single dose: < 70%

Structure (SMILES): Cc1cc(C)cc(COc2ccc3c(C)c(CCC(=O)O)c(=O)oc3c2C)c1
- growth inhibition at single dose: < 70%

Structure (SMILES): Clc1ccc(CCNc2cc(-c3ccccc3)nc3ncnn23)cc1
- growth inhibition at single dose: < 70%

Structure (SMILES): Cc1cc(N2CCCC2)nc(Nc2ccc(NC(=O)CCc3ccccc3)cc2)n1
- growth inhibition at single dose: < 70%

Structure (SMILES): CCOc1ccccc1NC(=O)CN1CCN(C(=O)c2ccco2)CC1
- growth inhibition at single dose: < 70%

Structure (SMILES): Fc1ccccc1-n1cnnc1SC(c1ccccc1)c1ccccc1
- growth inhibition at single dose: < 70%

Structure (SMILES): CCN(CC)C(=O)N1CCN(C)CC1 [Diethylcarbamazine]
- growth inhibition at single dose: < 70%

Structure (SMILES): O=C(Nc1ncccc1O)c1ccc(-n2cnc3ccccc32)cc1
- growth inhibition at single dose: < 70%

Structure (SMILES): Cc1csc(SCC(=O)c2cc(C)n(-c3ccccc3)c2C)n1
- growth inhibition at single dose: < 70%

Structure (SMILES): O=C(CSc1nnc(C2CC2)o1)NCCC1=CCCCC1
- growth inhibition at single dose: < 70%

Structure (SMILES): c1ccc(-c2ccc(-c3nc4ccccc4[nH]3)cc2)cc1
- growth inhibition at single dose: < 70%

Structure (SMILES): COCCN(C(=O)Cc1cccs1)C(C(=O)NCc1ccc(OC)cc1)c1ccc(C(C)C)cc1 (stereo not given)
- growth inhibition at single dose: < 70%

Structure (SMILES): Clc1cc2c(c3ncccc13)OCN(Cc1ccco1)C2
- growth inhibition at single dose: < 70%

Structure (SMILES): CC(=O)c1c(C)[nH]c(C(=O)Nc2ccc(Oc3ccccc3Cl)cc2)c1C
- growth inhibition at single dose: < 70%

Structure (SMILES): COc1cc2c(cc1OC)CN(C(=O)c1ccc(OCC(F)(F)F)nc1)CC2
- growth inhibition at single dose: < 70%

Structure (SMILES): COc1ccc(CNC(=O)c2cc3c(=O)n4ccccc4nc3n(CCc3ccccc3)c2=N)cc1
- growth inhibition at single dose: < 70%

Structure (SMILES): O=C(Nc1nnc(-c2ccc(Cl)s2)o1)c1ccc(Cl)s1
- growth inhibition at single dose: < 70%

Structure (SMILES): Nc1ncnc2c1ncn2C[C@@H](O)[C@@H](O)C(=O)O
- growth inhibition at single dose: < 70%

Structure (SMILES): CCOC(=O)c1cnc2c(C)cc(C)cc2c1Nc1ccc(OC)c(OC)c1
- growth inhibition at single dose: < 70%

Structure (SMILES): CCOC(=O)c1cnc2c(C)cccc2c1Nc1ccc(C(C)=O)cc1
- growth inhibition at single dose: < 70%

Structure (SMILES): Cc1nn(C)c(C)c1CC(=O)Nc1ccc(-n2cnc3ccccc32)cc1
- growth inhibition at single dose: < 70%

Structure (SMILES): CCn1c2c(c(=N)c3c1CCC3)CCCC2
- growth inhibition at single dose: < 70%

Structure (SMILES): Cc1cccc(-c2nnc(Sc3nc(C)nc4sc5c(c34)CCCC5)n2CC(N)=O)c1
- growth inhibition at single dose: < 70%

Structure (SMILES): Cc1cccc(NC(=O)CN2C(=O)/C(=C(/C#N)c3nc4ccccc4[nH]3)c3ccccc32)c1
- growth inhibition at single dose: < 70%

Structure (SMILES): Cc1cc(C)c(C#N)c(SCC(=O)N(C)Cc2cnn(-c3ccccc3)c2)n1
- growth inhibition at single dose: < 70%

Structure (SMILES): Clc1ccc(CN2CCN(C3=NCCN3)CC2)cc1Cl
- growth inhibition at single dose: < 70%

Structure (SMILES): CC(C)(C)C1CCC(CC2=C(O)C(=O)c3ccccc3C2=O)CC1 (stereo not given)
- growth inhibition at single dose: < 70%

Structure (SMILES): CCOC(=O)c1c(C)[nH]c(C(=O)Nc2ncccc2C)c1C
- growth inhibition at single dose: < 70%

Structure (SMILES): Cc1cccc(Nc2nc(N)c3ccccc3n2)c1
- growth inhibition at single dose: < 70%

Structure (SMILES): CCOc1ccc2c(c1)CN(Cc1ccc(Cl)cc1)CO2
- growth inhibition at single dose: < 70%

Structure (SMILES): O=C(Nc1ccc(F)c(Cl)c1)c1[nH]nc2ccccc12
- growth inhibition at single dose: < 70%

Structure (SMILES): O=C(NNc1cc(N2CCCC2)nc(N2CCCC2)n1)c1ccccc1
- growth inhibition at single dose: < 70%

Structure (SMILES): O=C(NCC(c1ccsc1)N1CCCCCC1)c1ccc(C(F)(F)F)cc1 (stereo not given)
- growth inhibition at single dose: < 70%

Structure (SMILES): CCc1cc(C(=O)Nc2ncccc2O)sc1C
- growth inhibition at single dose: < 70%

Structure (SMILES): Cc1ccccc1NC(=O)c1cc2ccccc2c(CN2CCC3(CC2)OCCO3)c1O
- growth inhibition at single dose: < 70%

Structure (SMILES): CCOC(=O)c1ccc2nc(-c3ccccc3)cc(O)c2c1
- growth inhibition at single dose: < 70%

Structure (SMILES): O=C(NCc1ccco1)N1CCN(Cc2ccc(Cl)s2)CC1
- growth inhibition at single dose: < 70%

Structure (SMILES): CC1CC(Nc2ccccc2)c2ccccc2N1S(=O)(=O)c1ccc(Br)cc1 (stereo not given)
- growth inhibition at single dose: < 70%

Structure (SMILES): CC1CCCN(C(=O)C(C)Nc2cc(Cl)ccc2N2CCOCC2)C1 (stereo not given)
- growth inhibition at single dose: < 70%

Structure (SMILES): CC(C)C(NC(=O)Cc1cccc2ccccc12)C(=O)Nc1cccc(C#N)c1 (stereo not given)
- growth inhibition at single dose: < 70%

Structure (SMILES): Cc1cccc(-c2nc(Nc3ccncn3)c3sccc3n2)n1
- growth inhibition at single dose: < 70%

Structure (SMILES): NS(=O)(=O)c1cncc(-c2ccc3nccc(-c4cn[nH]c4)c3n2)c1
- growth inhibition at single dose: < 70%

Structure (SMILES): C=CCN(C(=O)c1[nH]c(C)c(C(C)=O)c1C)c1nc2c(s1)CCCC2
- growth inhibition at single dose: < 70%

Structure (SMILES): Cc1ccc(NS(=O)(=O)c2ccc(C(=O)Nc3ncccc3O)cc2)cc1C
- growth inhibition at single dose: < 70%

Structure (SMILES): COc1cc(/C=N/NC(=O)c2ccccc2NS(=O)(=O)c2cccs2)ccc1OCCC(C)C
- growth inhibition at single dose: < 70%

Structure (SMILES): CC(Oc1ccc(NC(=O)c2cccs2)cc1)C(=O)c1ccc(Cl)cc1 (stereo not given)
- growth inhibition at single dose: < 70%

Structure (SMILES): Cc1cc(NCCN2CCCCC2)c2ccc3ccccc3c2n1
- growth inhibition at single dose: < 70%

Structure (SMILES): CC1CC2=C(CC1CNCCCN(C)C)C(C)(C)CCC2 (stereo not given)
- growth inhibition at single dose: < 70%

Structure (SMILES): OC1CCCCC1C1(NC(=S)Nc2ccccc2)CCCCC1 (stereo not given)
- growth inhibition at single dose: < 70%

Structure (SMILES): CN(CC(=O)Nc1ccccc1N1CCCC1)Cc1ccc2ccccc2c1
- growth inhibition at single dose: < 70%

Structure (SMILES): CCOc1ccccc1CN1CCc2nc3cc(C(C)(C)C)nn3c(O)c2C1
- growth inhibition at single dose: < 70%

Structure (SMILES): Clc1ccc2c(N3CCCC3)ccnc2c1
- growth inhibition at single dose: < 70%

Structure (SMILES): CC(C)c1ccc(C2C3CCc4ccccc4C3=NN2C)cc1 (stereo not given)
- growth inhibition at single dose: < 70%

Structure (SMILES): O=C1O[C@@H](COc2ccon2)CN1c1cc(F)c(C2=CCN(Cc3ccccc3)CC2)c(F)c1
- growth inhibition at single dose: < 70%

Structure (SMILES): Cc1ccc(Sc2nc(-c3cccs3)ns2)cc1
- growth inhibition at single dose: < 70%

Structure (SMILES): O=c1c2ccccc2cnn1-c1nc2ccccc2[nH]1
- growth inhibition at single dose: < 70%

Structure (SMILES): O=C(Nc1ccc(N2CCOCC2)nc1)c1ccc(S(=O)(=O)N2CCCc3ccccc32)cc1
- growth inhibition at single dose: < 70%

Structure (SMILES): O=C(Nc1ccc(CNc2ncnc3cc(Cl)ccc23)cc1)C1CC1
- growth inhibition at single dose: < 70%

Structure (SMILES): CCOc1cc(Cl)c(C(C)NC(=O)c2cccc(OC)c2)cc1OCC (stereo not given)
- growth inhibition at single dose: < 70%

Structure (SMILES): Cc1ccc(-c2noc(CN3CCN(c4cc(C)nc(N)n4)CC3)n2)cc1
- growth inhibition at single dose: < 70%

Structure (SMILES): CCOc1ccc(CN2CCN(CC(O)COc3ccc(OCC(O)CN4CCN(Cc5ccc(OCC)cc5)CC4)cc3)CC2)cc1 (stereo not given)
- growth inhibition at single dose: < 70%

Structure (SMILES): CC(C)(C)c1ccc(C(=O)NCCOc2ccccc2F)cc1
- growth inhibition at single dose: < 70%

Structure (SMILES): Cc1cc(NC(=O)C(C)(C)C)sc1C(=O)Nc1ccccc1O
- growth inhibition at single dose: < 70%

Structure (SMILES): C/N=c1\scc(-c2ccc(OC(F)F)cc2)n1/N=C/c1ccccc1Br
- growth inhibition at single dose: < 70%

Structure (SMILES): CC1CN(C(=O)c2ccc(S(=O)(=O)Nc3ccccc3F)cc2)CC(C)O1 (stereo not given)
- growth inhibition at single dose: < 70%

Structure (SMILES): COc1cncc(-c2cncc(N3CCN(c4ccncc4)CC3)n2)c1
- growth inhibition at single dose: < 70%

Structure (SMILES): O=S(=O)(c1ccc2ccccc2c1)N1CCCC1c1nnc2ccccn12 (stereo not given)
- growth inhibition at single dose: < 70%

Structure (SMILES): O=C(Nc1ccc(N2CCN(Cc3ccccc3)CC2)cc1)c1cccs1
- growth inhibition at single dose: < 70%
